Test results: patent publication US7425635B2, “Prodrugs and conjugates of thiol- and selenol-containing compounds and methods of use thereof” (University of Utah Research Foundation, priority 1997, dated 2008)

How the values were obtained:
NNK lung tumor = NNK lung tumor four-month feeding study; format: in vivo; conditions: mice, diet 15 ppm Se from 1 week prior to NNK (10 umol, ip), sacrificed after 16 weeks
Protocol: (§1) Three novel selenazolidines, 2-methyl-, 2-oxo- and 2-unsubstituted (i.e., selenaproline) selenazolidine-4[R]-carboxylic acid (MSCA, OSCA, and SCA respectively) that had been synthesized as prodrugs of selenocysteine were evaluated for their potential to act as cancer chemopreventive agents. [Se] and GPx activity were evaluated.
(§2) Where indicated, mice (16 g) were given diets fortified with SCA, MSCA or OSCA (15 ppm Se) for 1 week prior to NNK (10 umol, ip). Two other groups received the unmodified AIN-76A diet, with and without NNK administration. All groups were maintained on their pretreatment diet until the animals were sacrificed after 16 weeks. Liver GPx activity is expressed as μmol NADPH oxidized [in regenerating GSH]/min/mg 10,000 g×20 min supernatant protein; RBC activity as μmol/min/mg RBC lysate hemoglobin.

[1] = Body weight gain and liver weight in four-month feeding study; format: in vivo; conditions: mice, diet 15 ppm Se, NNK
Protocol: as §2

GPx [2] = assay: Hepatic and RBC (tButylOOH) GPx activity in four-month feeding study; format: in vivo; conditions: mice, diet 15 ppm Se, NNK; for Hepatic (tButylOOH) GPx: liver
Protocol: as §1, §2

Ugt1a1 = assay: Northern blot of liver Ugt1a1 mRNA after ip dosing; format: in vivo, mice; conditions: mean ± SEM
Protocol: (§3) Linking efficacy to biochemical parameters and a mechanism was limited in the initial study by only two parameters, [Se] and GPx activity. The in-vivo effects of selenazolidine compounds were then evaluated using, in addition to GPx, glutathione S-transferases (GSTs), quinone oxidoreductases (NQORs), UDP-glucuronosyltransferases (UGTs), and microsomal epoxide hydrolase (mEH). To investigate transcriptional changes of these classes of enzymes, it was necessary to develop a battery of cDNA probes for use in Northern blot analysis of RNA extracted from treated animals (Table 2).
(§4) Whether the selenaproline compounds had the ability to up-regulate the transcription of Phase II and/or other “protective” enzymes was first evaluated following a single dose of each (Table 3). […] The experiment was repeated but with a 7-day treatment regimen (Table 4), the time period for which the compounds were given in the diet before NNK administration in the tumor experiment reported in Table 1. […] With multiple doses, SCA induced Ugt1a9, an mRNA that was not changed with a single dose. […] The elevation in the Gst-mu transcript was unique to multiple OSCA treatment. The elevation of the GST-alpha mRNA was also seen with SCA treatment. Microsomal epoxide hydrolase mRNA was robustly elevated by multiple doses of all three selenaproline compounds, an effect not anticipated from the single dose experiment where not even minor changes were apparent.

Ugt1a6 = assay: Northern blot of liver Ugt1a6 mRNA after ip dosing; format: in vivo, mice; conditions: mean ± SEM
Protocol: as §3, §4

Ugt1a9 = assay: Northern blot of liver Ugt1a9 mRNA after ip dosing; format: in vivo, mice; conditions: 1.25 mg Se/kg, mean ± SEM
Protocol: as §3, §4

Gst-alpha = assay: Northern blot of liver Gst-alpha mRNA after ip dosing; format: in vivo, mice; conditions: mean ± SEM
Protocol: as §3, §4

Gst-mu = assay: Northern blot of liver Gst-mu mRNA after ip dosing; format: in vivo, mice; conditions: mean ± SEM
Protocol: as §3, §4

mEH = assay: Northern blot of liver mEH mRNA after ip dosing; format: in vivo, mice; conditions: mean ± SEM
Protocol: as §3, §4

GPx [3] = assay: Northern blot of liver GPx mRNA after ip dosing; format: in vivo, mice; conditions: mean ± SEM
Protocol: as §3, §4

GST = assay: Hepatic cytosolic GST (CDNB) activity after 7 daily ip doses; format: in vivo, mice; conditions: 7 daily doses ip, hepatic cytosol; naive 5248 ± 503
GPx [4] = assay: Hepatic cytosolic GPx (H202) activity after 7 daily ip doses; format: in vivo, mice; conditions: 7 daily doses ip, hepatic cytosol; naive 894 ± 36
[5] = sALT (hepatotoxicity) after 7 daily ip doses; format: in vivo; set-up: unit not given here; conditions: 7 daily doses ip, 1.25 mg Se/kg, with corn oil; untreated mice 37.5 ± 2.9
From the text: Many of the mRNA changes seen with a single dose were not sustained with multiple dosing. Changes in Ugt transcripts after multiple dosing were noticeably absent. Unique to BSCA among the four new compounds investigated was its ability to induce Gst-alpha, Gst-mu and GPx mRNAs. For the Gst-alpha transcripts, which appeared elevated by corn oil, the BSCA increase was much greater than the vehicle alone (8-fold versus 2-fold) and was statistically significant (p<0.05). BSCA shared with PhOHSCA the ability to elevate mEH mRNA.

[6] = Stability in aqueous solution; format: physicochemical; conditions: compared with MSCA; previous studies
From the text: Accordingly, additional compounds were synthesized with a range of partition coefficients (Table 6) and evaluated their ability to alter gene transcription following single (Table 7) and multiple (Table 8) doses. The new 2-(R,S)-substituted-4(R)-carboxylic acid derivatives involving 2-butyl, 2-cyclohexyl, 2-phenyl and 2-(2-hydroxyphenyl) were synthesized utilizing the reaction of selenocysteine and the appropriate carboxaldehyde. They were purified by crystallization from ethanol/acetonitrile mixtures and their molecular structures were verified by spectral methods of analysis (′HNMR, ^13CNMR, ESIMs and HRMS).

[7] = 1 dose ip, 1.25 mg Se/kg, liver RNA 24 hours after dosing
[8] = 7 daily doses ip, 1.25 mg Se/kg, liver RNA 24 hours after the last dose
[9] = 1 dose ip, liver RNA 24 hours after dosing
[10] = 1 dose ip, 1.25 mg Se/kg in corn oil, liver RNA 24 hours after dosing
[11] = 7 daily doses ip, 1.25 mg Se/kg, with corn oil, liver RNA 24 hours after the last dose

Row | Compound | NNK Tumors (NNK lung tumor) | Body wt gain (%) [1] | Liver weight [1] | RBC (tButylOOH) GPx (GPx [2]) | Hepatic (tButylOOH) GPx (GPx [2]) | Ugt1a1 mRNA (Ugt1a1; [7]) | Ugt1a1 mRNA (Ugt1a1; [8]) | Ugt1a6 mRNA (Ugt1a6; [7]) | Ugt1a6 mRNA (Ugt1a6; [8]) | Ugt1a9 mRNA (Ugt1a9; [9]) | Gst-alpha mRNA (Gst-alpha; [7]) | Gst-mu mRNA (Gst-mu; [7]) | Gst-mu mRNA (Gst-mu; [8]) | mEH mRNA (mEH; [7]) | mEH mRNA (mEH; [8]) | GPx (1.5 kb) mRNA (GPx [3]; [7]) | GPx mRNA (GPx [3]; [8]) | GST (CDNB) activity (GST) | GPx (H202) activity (GPx [4]) | other results
1 | CC1N[C@H](C(=O)O)C[Se]1 (mixture of isomers) [MSCA, 2(R,S)-Methylselenazolidine-4(R)-carboxylic acid] | 8.3 ± 0.9 | 49.3% | 1.17 ± 0.02 g | 220 ± 32 μmol/min/mg RBC lysate hemoglobin | 564 ± 46 μmol NADPH oxidized/min/mg 10, | 1.07 ± 0.11 fold change from naive | 1.15 ± 0.09 fold change from naive | 1.21 ± 0.28 fold change from naive | 1.02 ± 0.15 fold change from naive | 1.47 ± 0.18 fold change from naive | 1.00 ± 0.19 fold change from naive | 1.07 ± 0.57 fold change from naive | 1.65 ± 0.18 fold change from naive | 1.06 ± 0.12 fold change from naive | 3.35 ± 1.21 fold change from naive | 1.65 ± 0.27 fold change from naive | 1.43 ± 0.35 fold change from naive | 6948 ± 502 nmol/mg cytosol (100,000 g supernatant) protein/min | 944 ± 32 nmol/mg cytosol (100,000 g supernatant) protein/min | Ugt1a9 mRNA (Ugt1a9; 7 daily doses ip, liver RNA 24 hours after the last dose): 1.22 ± 0.29 fold change from naive; Gst-alpha mRNA (Gst-alpha; [8]): 1.18 ± 0.33 fold change from naive
2 | CCCCC1NC(C(=O)O)C[Se]1 (stereo not drawn) [BSCA, 2-n-butyl-SCA] | – | – | – | – | – | – | – | – | – | – | – | – | – | – | – | – | – | – | – | Ugt1a1 mRNA (Ugt1a1; [10]): 0.83 ± 0.28 fold change from naive; Ugt1a1 mRNA (Ugt1a1; [11]): 1.21 ± 0.26 fold change from naive; Ugt1a6 mRNA (Ugt1a6; [10]): 1.95 ± 0.21 fold change from naive; Ugt1a6 mRNA (Ugt1a6; [11]): 1.84 ± 0.54 fold change from naive; Ugt1a9 mRNA (Ugt1a9; 7 daily doses ip, with corn oil, liver RNA 24 hours after the last dose): 1.69 ± 0.35 fold change from naive; Gst-alpha mRNA (Gst-alpha; [10]): 1.39 ± 0.05 fold change from naive; Gst-mu mRNA (Gst-mu; [10]): 1.58 ± 0.46 fold change from naive; mEH mRNA (mEH; [10]): 0.69 ± 0.19 fold change from naive; GPx mRNA (GPx [3]; [10]): 1.58 ± 0.46 fold change from naive; sALT [5]: 37.1 ± 2.7; Stability in aqueous solution [6]: much more stable in aqueous solution than MSCA
3 | O=C(O)C1C[Se]CN1 (stereo not drawn) [SCA, selenazolidine-4-carboxylic acid] | 6.7 ± 0.8 | 51.1% | 1.18 ± 0.02 g | 253 ± 33 μmol/min/mg RBC lysate hemoglobin | 409 ± 46 μmol NADPH oxidized/min/mg 10, | 1.03 ± 0.18 fold change from naive | 2.25 ± 0.25 fold change from naive | 1.01 ± 0.29 fold change from naive | 1.01 ± 0.07 fold change from naive | 1.35 ± 0.50 fold change from naive | 1.15 ± 0.28 fold change from naive | 1.28 ± 0.09 fold change from naive | 0.58 ± 0.11 fold change from naive | 1.36 ± 0.40 fold change from naive | 3.25 ± 1.80 fold change from naive | 1.12 ± 0.04 fold change from naive | 1.55 ± 0.76 fold change from naive | 6576 ± 595 nmol/mg cytosol (100,000 g supernatant) protein/min | 862 ± 81 nmol/mg cytosol (100,000 g supernatant) protein/min | –
